Series [1] is described as follows: MTT assay for host cell cytotoxicity. The format is cell-based, human. The conditions noted are these: human, HFF cells; MTT assay, 48 h; mean ± SD (n = 2). Here is the method:
The MTT assay was used to measure the cytotoxicity of the small molecules against the HFF cells as described. Briefly, freshly confluent HFF cells in a 96-well culture plate were treated with increasing concentrations of compounds for 48 h, prior to the MTT assay.
(Tetrazolium assays rely on reduction of a dye to a coloured formazan, in cell work by metabolically active cells.)

Series [2] deals with T. gondii RH strain expressing the luciferase reporter (RH-Fluc). Put plainly: T. gondii tachyzoite growth inhibition assay (RH-Fluc luciferase). The format is cell-based, Toxoplasma gondii. The conditions noted are these: Toxoplasma gondii. From the text:
T. gondii RH strain expressing the luciferase reporter (RH-Fluc) was derived to assess the effect of the inhibitors on growth. Briefly, plasmid pCTG-EGFP [42] was modified by replacing the coding sequence of EGFP with that of the firefly luciferase reporter, using restriction enzymes BglII and PstI (Thermo Fisher Scientific, Waltham, MA, USA). The resultant plasmid, pCTG-Fluc, expressing firefly luciferase constitutively under the control of the T. gondii TubulinA promoter, was electroporated into the T. gondii RH strain [43, 44] using a Bio-Rad GenePulser Xcell system (1500 V, 50 Ω and 25 µF) along with restriction enzyme NotI to initiate RE-Mediated Integration (REMI) of the linearized plasmid into the genome. The resultant stable T. gondii line expressing the luciferase reporter was selected for resistance to 20 µM chloramphenicol (encoded by the plasmid pCTG), and dilution cloning was performed to ultimately identify the clone (RH-Fluc) with the highest luciferase activity (c. 4 × 10^7 RLU from 10^7 parasites) used for growth assays. T. gondii tachyzoites were maintained and cultured at 37 °C in 5% CO2 in a humidified incubator in primary human foreskin fibroblasts (HFF, ATCC); HFF cells were maintained in Dulbecco’s modified Eagle medium (DMEM) (Gibco^TM, Waltham, MA, USA) supplemented with 3.7 g/L sodium bicarbonate and 2.38 g/L HEPES, 10% Cosmic Calf serum (Hyclone^TM, Logan, UT, USA) and 20 mg/L gentamicin [47, 48].
Growth inhibition was assessed by luminescence measurements as described. Briefly, 100 μL of culture medium with or without inhibitors was added to confluent monolayers of HFF cells grown in 96-well treated culture plates (Eppendorf, Hamburg, Germany), followed by 100 µL of DMEM containing 5000 parasites. After 48 h, 150 µL of the culture media was discarded from each well without aspirating any parasites, and 10 µL lysis buffer was added to lyse the parasites, followed by 50 μL of 2× luciferase assay reagent (Promega, Madison, WI, USA). Luminescence was measured directly for 10 s using a Varioskan™ LUX multimode microplate reader (Thermo Fisher Scientific, Waltham, MA, USA).

The structures appear in SMILES notation. Like-named read-outs stand apart in the source and are kept apart here.

A word on the CC50: it is the concentration at which the toxic effect on the cells reaches its halfway point. Higher therefore signals better tolerance by the cells. For orientation: IC50 means the concentration at which inhibition is half-maximal. `CCc1nc(N)nc(N)c1-c1ccc(Cl)cc1` [pyrimethamine] registered a CC50 at 48 h in series [1] above 10000 nM. For the same compound, the half-maximal inhibitory concentration (IC50) in series [2] (Table S1, mean ± SEM (n = 3), read-out: IC50 T. gondii tachyzoites) was 500 ± 100 nM; in series [2] (parasites in culture, 48 h, pooled, mean ± SD (n = 3) (Table 3), read-out: IC50 T. gondii) it was 460 ± 140 nM.

Values taken from publication PMC8997399, “High-Throughput Screening to Identify Inhibitors of Plasmodium falciparum Importin α” (Cells, 2022).
